{
  "source": "patent US9155784B2",
  "about": "“Anti-TNF-α therapy for the mucopolysaccharidoses and other lysosomal disorders” (Icahn School of Medicine at Mount Sinai, priority 2011, dated 2015)",
  "type_in_all_cases": "in vivo, rat",
  "key": {"[1]": {"tested_on": "MPS VI rats", "assay": "MicroCT analysis of bone micro-architecture (trabecular, cortical, robustness), MPS VI rats", "settings": "mid-diaphyseal femur, vs untreated; fell short of statistical significance", "description": "(§1) Three-dimensional images of the 37-week-old femora from age-matched normal, untreated and treated MPS VI rats were obtained using the eXplore Locus SP PreClinical Specimen microCT system (GE Healthcare; London, Ontario, Canada). Scans were performed at a voxel size of 14.4 μm. The scan protocol consisted of 3600 image acquisitions over a five hour scan (acquisition parameters: 80 kVp, 80 uA, 3 second exposure time [˜690], 0.010″ aluminum beam filter). A calibration phantom containing air, water, and hydroxyapatite (SB3: Gamex RMI, Middleton, Wis., USA) was included in all scans to adjust for the variability in X-ray attenuation inherent to independent scan sessions.\nA representative mid-diaphyseal region of each femoral microCT image was isolated for analysis. […] The analysis region was not restricted by measured size to accommodate variances in bone length. […] The MicroView software was employed to quantify morphological traits.\nThe microCT images were further processed to quantify the tissue mineral density (TMD) of cortical bone within each sample. […] TMD was calculated by converting the gray-scale values of bone voxels from Hounsfield units (HU) to mineral values (mg/cc of HA) through the use of a calibration phantom containing air, water, and HA (Gamex RMI, Middleton, Wis., USA). […]"}, "[2]": {"tested_on": "MPS VI rats", "assay": "Femora and tibia length by microCT / caliper, MPS VI rats", "settings": "37 weeks of age, vs untreated MPS VI", "description": "as §1\nLimb and trachea measurements were taken at the end of the study (37 weeks of age). The length of each femur was measured from the microCT images using the Microview software. The greater trochanter was used as the proximal margin of the femur, whereas the extent of the distal condyles was considered the distal margin. Thus, the length of each femur was computed roughly along the vertical axis of the bone. For validation, the physical femora and tibia lengths, as well as the width of the tracheas, was measured with a digital caliper. The mean of the two treatment groups (ERT and combined ERT/CNTO1081) were compared using standard student t test analysis."}, "[3]": {"tested_on": "MPS VI rats", "assay": "Synovium / knee joint histology, MPS VI rats", "settings": "MPS VI rats treated 8 months, knee cross sections", "description": "(§2) Femora from 37-week-old normal, untreated MPS VI and treated MPS VI rats were fixed, embedded, sectioned, and stained with toluidine blue and H & E. Immunohistochemical studies were performed as well. For immunohistochemistry, sections were fixed with 4% paraformaldehyde/PBS, permeabilized with 0.5% Triton-X-100, blocked, and incubated overnight at 4° C. with primary rabbit polyclonal anti-mouse collagen type IIA1 (rabbit polyclonal […], Santa Cruz Biotechnology) and TNF-α antibody (goat polyclonal sc-1348, Santa Cruz Biotechnology). After several rinses with PBS, visualization was accomplished using a fluorescent secondary antibody, donkey anti-goat IgG-Cy-3 (711-165-152, Jackson Laboratory). Nuclei were stained with 1 mg/ml bis-benzimide Hoechst dye (Sigma-Aldrich) for 10 min, rinsed, and sections were mounted with an anti-bleaching mounting media. Slides were visualized and photographed with a confocal laser-scanning microscope (Carl Zeiss 510 Meta).\nFIG. 1A summarizes the serum levels of TNF-α and RANKL at the end of the study. Both inflammatory markers were highly elevated in untreated MPS VI rats as compared to normal animals, and both treatment protocols led to significant reductions. […] The synovial membranes (*) were hyperplastic in untreated MPS VI rats, leading to the formation of synovial villi (SV). […]"}, "[4]": {"tested_on": "TNF-α", "assay": "TNF-α immunostaining of articular cartilage, MPS VI rats", "settings": "MPS VI rats treated 8 months, vs untreated", "description": "as §2"}},
  "data": [
    {"substance": "recombinant human N-acetylgalactosamine-4-sulfatase [ERT]", "values": [
      {"measurement": "cortical area and relative cortical area", "setting": "[1]", "value": "greater"},
      {"measurement": "increase in femora length", "setting": "[2]", "value": "No improvements were observed"},
      {"measurement": "increase in tibia length", "setting": "[2]", "value": "No improvement was observed"},
      {"measurement": "synovial inflammation and formation of villi", "setting": "[3]", "value": "did not reduce"},
      {"measurement": "TNF-α immunostaining in the articular cartilage", "setting": "[4]", "value": "modestly reduced"}
    ]}
  ]
}
